From PubChem BioAssay (NCI)
Values joined by “and” are separate entries in the source; they are usually repeats but may differ in a detail not shown here. Identical values can stand only once.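 1) Cells in 96-well plates. 2) Compound, 48 h, 5 concentrations. 3) Linear interpolation between surrounding doses. 4) Unreached endpoint = highest concentration. GI50: concentration for 50% inhibition of growth. At the TGI there is no net growth.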

Key:
Assay in all cases: growth of human tumour cells (NCI), 48 h
HCC-2998 colon = system: HCC-2998 colon
IGROV1 ovarian = system: IGROV1 ovarian
SN12C renal = system: SN12C renal
RXF 393 renal = system: RXF 393 renal
NCI-H23 lung = system: NCI-H23 lung
MCF7 breast = system: MCF7 breast
SF-539 CNS = system: SF-539 CNS
SF-268 CNS = system: SF-268 CNS
OVCAR-4 ovarian = system: OVCAR-4 ovarian
HOP-62 NSCLC = system: HOP-62 NSCLC

SMILES | GI50 (HCC-2998 colon) | TGI (HCC-2998 colon) | GI50 (IGROV1 ovarian) | TGI (IGROV1 ovarian) | GI50 (SN12C renal) | TGI (SN12C renal) | GI50 (RXF 393 renal) | TGI (RXF 393 renal) | GI50 (NCI-H23 lung) | TGI (NCI-H23 lung) | GI50 (MCF7 breast) | TGI (MCF7 breast) | GI50 (SF-539 CNS) | TGI (SF-539 CNS) | GI50 (SF-268 CNS) | TGI (SF-268 CNS) | GI50 (OVCAR-4 ovarian) | TGI (OVCAR-4 ovarian) | GI50 (HOP-62 NSCLC) | TGI (HOP-62 NSCLC)
NC(=O)c1cc(I)ccc1NC(=O)/C=C/c1ccccc1Cl | 0.969 µM | 5.61 µM | 0.352 µM | 16.9 µM | 1.32 µM | 36.7 µM | 0.375 µM | 2.18 µM | 1.07 µM | 19.6 µM | 0.333 µM | 25.7 µM | 0.41 µM | 2.83 µM | 0.64 µM | 31 µM | 2.26 µM | 67.7 µM | 4.9 µM | 33.5 µM
Cc1cc(I)cc(CNCCN2CCOCC2)c1O | 43.9 µM | > 100 µM | 67 µM | > 100 µM | > 100 µM | > 100 µM | 48.5 µM | > 100 µM | 27.5 µM | > 100 µM | > 100 µM | > 100 µM | 37.2 µM | > 100 µM | 93.2 µM | > 100 µM | > 100 µM | > 100 µM | 29.4 µM | > 100 µM
O=C(NCCCl)NCCN1c2nc3ccccc3cc2Sc2cc3ccccc3nc21 | 1.68 µM | 5.09 µM | 0.71 µM | 25.3 µM | 3.04 µM | > 47.6 µM | 6.45 µM | 27.9 µM | 1.43 µM | > 45.6 µM | 1.02 µM | 2.59 µM | 3.14 µM | 17.7 µM | 3.63 µM | > 41 µM | 0.9 µM | > 23.4 µM | 2.8 µM | 9.87 µM
CN(C)c1ccc(/C=C(\C#N)c2ccccc2)cc1 | 1.31 µM and 3.24 µM and 1.62 µM | 31.7 µM and 57.4 µM and > 100 µM | 0.599 µM and 1.81 µM | > 100 µM | 0.553 µM and 0.788 µM and 0.764 µM | > 100 µM | 0.394 µM and 0.662 µM and 0.817 µM | 3.09 µM and 5.77 µM | 0.957 µM and 1.33 µM and 0.76 µM | > 100 µM | 0.261 µM and 0.276 µM and 0.281 µM | > 100 µM | 0.324 µM and 0.481 µM | 1.34 µM and 4.48 µM | – | > 100 µM | 3.18 µM and 2.42 µM and 1.75 µM | > 100 µM | 1.37 µM and 0.993 µM and 0.567 µM | 59.9 µM and > 100 µM
COc1ccc(C2CC(c3ccccc3)=NN2C(=O)c2cc(OC)c(OC)c(OC)c2)cc1O (configuration not stated) | 0.724 µM | 4.08 µM | 0.498 µM | > 100 µM | 0.766 µM | 34.4 µM | 0.317 µM | 0.84 µM | 0.743 µM | > 65.8 µM | 0.339 µM | > 53.6 µM | 0.288 µM | 1.31 µM | 0.902 µM | > 39.8 µM | 0.596 µM | > 100 µM | 0.397 µM | 5.21 µM
Nc1c(C(=O)c2ccc(C#CCN3CCOCC3)cc2)cnn1-c1ccc(F)cc1 | > 25 µM | > 25 µM | > 25 µM | > 25 µM | > 25 µM | > 25 µM | > 25 µM | > 25 µM | > 25 µM | > 25 µM | > 25 µM | > 25 µM | > 25 µM | > 25 µM | > 25 µM | > 25 µM | > 25 µM | > 25 µM | > 25 µM | > 25 µM
Cc1ccc(/C=C(/C#N)n2nnc3ncccc32)cc1 | 3.37 µM | 12.2 µM | 2.28 µM | 21.5 µM | 2.6 µM | 9.66 µM | 1.54 µM | 6.54 µM | 3.09 µM | 17.9 µM | 2.37 µM | 18.1 µM | 2.47 µM | 9.61 µM | 3.08 µM | 15.1 µM | 2.14 µM | 15.8 µM | 3.17 µM | 12.9 µM
CN1CCN(Cc2ccc(NC(=O)c3cncc(C#Cc4c(N)ncc5c(F)cccc45)c3)cc2C(F)(F)F)CC1 | 0.821 µM | 1.56 µM | 0.726 µM | 1.61 µM | 0.743 µM | 1.43 µM | 0.799 µM | 1.54 µM | 0.804 µM | 1.69 µM | 0.55 µM | 1.31 µM | 0.593 µM | 1.22 µM | 0.741 µM | 1.61 µM | 0.503 µM | 1.25 µM | 1.28 µM | 3.87 µM
CON=C1C[C@]2(C[C@@H]3C[C@@H](C/C=C(\C)C[C@@H](C)/C=C/C=C4\CO[C@@H]5[C@H](O)C(C)=C[C@@H](C(=O)O3)[C@]45O)O2)O[C@H](/C(C)=C/C(C)C)[C@H]1C | 12.1 µM | 26.9 µM | 11.5 µM | 23.9 µM | 14 µM | 28.3 µM | 16.4 µM | 30.6 µM | 12.6 µM | 28.4 µM | 15.9 µM | 30 µM | 20.4 µM | 36.9 µM | 13 µM | 27.5 µM | 16 µM | 29.7 µM | 15.5 µM | 29 µM
O=C(/C=C\c1cc(Br)ccc1O)/C=C/c1cc(Br)ccc1O | 1.51 µM | 2.89 µM | 1.6 µM | 3.62 µM | 1.47 µM | 4.63 µM | 0.348 µM | 1.41 µM | 0.87 µM | 2.68 µM | 0.339 µM | 2.13 µM | 1.47 µM | 3.35 µM | 1.33 µM | 3.1 µM | 1.21 µM | 6.87 µM | 3.22 µM | 9.44 µM
O=C(CN1CCN(CCN2C(=O)c3cccc4cccc(c34)C2=O)CC1)Nc1ccc2ncsc2c1 | 5.84 µM | > 100 µM | 7.91 µM | > 100 µM | 5.5 µM | 19.9 µM | 6.32 µM | > 100 µM | 7.08 µM | 27 µM | 4.65 µM | 17.5 µM | 6.43 µM | 20.5 µM | 6.07 µM | 25 µM | 11.3 µM | 26.5 µM | 5.69 µM | 23.4 µM
Cc1ccc(S(=O)(=O)OCC(=O)Nc2ccc(C(=O)O)c(O)c2)cc1 | 41 µM | 88.1 µM | 18 µM | 92.3 µM | 27.9 µM | 105 µM | 16.5 µM | 85 µM | 29.4 µM | 105 µM | 23.9 µM | 121 µM | 24.7 µM | 72.2 µM | 19.5 µM | 53.5 µM | 26.8 µM | 143 µM | 32.6 µM | 86 µM
[N-]=[N+]=NCCCn1c2c(c3ccc([N+](=O)[O-])cc3c1=O)C(=O)c1cc(I)ccc1-2 | 11.7 µM | 59.3 µM | 1.95 µM | 65.5 µM | 3.89 µM | > 100 µM | 12.5 µM | 62.8 µM | 5.41 µM | 55.7 µM | 0.586 µM | > 100 µM | 2.23 µM | 8.51 µM | 2.58 µM | > 100 µM | 60 µM | > 100 µM | 1.82 µM | 38.8 µM
COc1ccc(/C(=C/c2ccc3ccccc3c2)c2nn[nH]n2)cc1OC | 5.2 µM | 82.9 µM | 4.23 µM | > 100 µM | 9.97 µM | > 100 µM | 2.48 µM | 9.07 µM | 5.29 µM | > 100 µM | 4.12 µM | > 100 µM | 2.38 µM | 7.94 µM | 6.55 µM | > 100 µM | 7.78 µM | > 100 µM | 2.33 µM | > 100 µM
O=c1c2cccc(F)c2sc2c(NCCCNCCO)nc3ccccc3c12 | 1.61 µM | 3.19 µM | 1.23 µM | 2.65 µM | 1.44 µM | 2.9 µM | 1.37 µM | 2.73 µM | 1.54 µM | 2.99 µM | 1.14 µM | 2.53 µM | 1.65 µM | 3.05 µM | 1.55 µM | 3.12 µM | 1.77 µM | 3.64 µM | 1.54 µM | 3.59 µM
COC(=O)CC1C2(C)C3=C(C)C(c4ccoc4)CC3OC2C2OC(=O)C3(C)C=CC(=O)C1(C)C23 (configuration not stated) | – | 2.7 µM | – | 3.29 µM | – | 2.58 µM | – | 3 µM | – | 3.52 µM | – | 1.95 µM | – | 3.03 µM | – | 7.62 µM | – | 10.1 µM | – | 9.1 µM
CC(C)n1nc(C#Cc2cccc(O)c2)c2c(N)ncnc21 | 2.4 µM and 4.46 µM | 27.4 µM and 21.5 µM | 0.856 µM | 2.24 µM | 0.894 µM and 0.532 µM | 5.09 µM and 4.76 µM | 1.15 µM and 0.481 µM | 4.2 µM and 1.5 µM | 1.23 µM and 0.992 µM | 6.75 µM and 5.4 µM | 1.62 µM and 1.51 µM | 50 µM and 11.9 µM | 0.815 µM and 0.282 µM | 3.57 µM and 1.65 µM | 1.37 µM and 1.09 µM | 6.71 µM and 6.05 µM | 1.34 µM and 1.74 µM | 7.4 µM and 6.17 µM | 1.18 µM and 1.3 µM | 4.31 µM and 5 µM
Nc1nc(=S)c2ncn(C3OC(CO)C(O)C3O)c2[nH]1 (configuration not stated) | 0.7 µM | 5 µM | 3.77 µM | > 35.5 µM | 3.98 µM | > 100 µM | 34.7 µM | > 100 µM | 0.776 µM | > 100 µM | 0.389 µM | > 70.6 µM | 0.745 µM | > 79.2 µM | 0.755 µM | > 100 µM | 1.86 µM | > 100 µM | 0.273 µM | 3.98 µM
O=C(/C=C/c1ccco1)Nc1ncc(Cc2cccc(C(F)(F)F)c2)s1 | 0.179 µM | 2.21 µM | 0.124 µM | > 32.2 µM | 0.197 µM | > 50.5 µM | 0.0576 µM | 0.853 µM | 0.208 µM | > 39.7 µM | 0.0367 µM | > 56.2 µM | 0.0762 µM | 0.313 µM | 0.167 µM | > 44.2 µM | 0.495 µM | 4.03 µM | 0.0965 µM | 6.32 µM
Cc1cncc(-c2nc(NCCc3c[nH]c4ccccc34)c3ncn(C(C)C)c3n2)c1 | 4.12 µM | 15.1 µM | 5.94 µM | 22.1 µM | 3.67 µM | 32.4 µM | 2.54 µM | 11.2 µM | 5.34 µM | 19.4 µM | 4.05 µM | 15.6 µM | 3.64 µM | 12.4 µM | 5.93 µM | 38.6 µM | 3.93 µM | 39.6 µM | 6.01 µM | 22.9 µM
COC(=O)[C@H](Cc1ccccc1)NNC(=O)c1csc([C@@H](C[C@H](C(C)C)N(C)C(=O)[C@@H](NC(=O)[C@H]2CCCCN2C)C2CC2)OC(C)=O)n1 | – | 25 µM and > 100 µM | – | 25 µM and > 100 µM | – | 25 µM and > 100 µM | 0.0025 µM | 25 µM | – | 25 µM and > 100 µM | 0.00392 µM and 0.0025 µM and 0.0244 µM | 25 µM and > 100 µM | 0.00648 µM and 0.0315 µM | 0.0564 µM and 0.461 µM | – | 25 µM and > 100 µM | – | 25 µM and > 100 µM | – | 25 µM and > 100 µM
